Columns and labels:
Type in all cases: biochemical
[1] = target: T1, Dopamine (DA) uptake (Rattus norvegicus, UniProt P23977); test: Dopamine (DA) uptake inhibitory activity using rat brain synaptosome (corpus striatum); details: tritium-labeled DA 2 nM, 37° C. ten minutes, read-out: 50% Inhibitory concentration
T1 construct: The suspension was used as a crude synaptosome fraction; from tissue; host or cells: rat (male Wistar) corpus striatum, crude synaptosome fraction
Description: Measurement of Dopamine (DA) Uptake Inhibitory Activity of Test Compound Using Rat Brain Synaptosome
(§1) Male Wistar rats were decapitated, and their brains were removed and dissected to remove the corpus striatum. The separated corpus striatum was placed in a 20-fold weight of a 0.32 molarity (M) sucrose solution and homogenized with a potter homogenizer. The homogenate was centrifuged at 1000 g at 4° C. for 10 minutes, and the supernatant was further centrifuged at 20000 g at 4° C. for 20 minutes. […] The suspension was used as a crude synaptosome fraction.
Uptake reaction was performed using each well of a 96-well round-bottom plate and a 200 μl volume in total of a solution containing pargyline (final concentration: 10 μM) and ascorbic acid (final concentration: 0.2 mg/mil).
(§2) Specifically, a solvent, unlabeled DA, and serially diluted test compounds were separately added to the wells, and the synaptosome fraction was added in an amount 1/10 of the final volume to each well and preincubated at 37° C. for 10 minutes. Then, a tritium-labeled DA solution (final concentration: 2 nM) was added thereto to initiate uptake reaction at 37° C. Ten minutes later, the uptake reaction was terminated by suction filtration through a 96-well glass fiber filter plate. Furthermore, the filter was washed with a cold saline and then sufficiently dried. MicroScint-O (PerkinElmer Co., Ltd.) was added thereto, and the residual radioactivity on the filter was measured.
(§3) An uptake value obtained by the addition of only the solvent was defined as 100%, and an uptake value (nonspecific uptake value) obtained by the addition of the unlabeled DA (final concentration: 10 μM) was defined as 0%. A 50% inhibitory concentration was calculated from the test compound concentrations and inhibitory activities thereat.

[2] = target: T2, Serotonin (5-HT) uptake (Rattus norvegicus, UniProt P31652); test: Serotonin (5-HT) uptake inhibitory activity using rat brain synaptosome (frontal cortex); details: tritium-labeled 5-HT 8 nM, 37° C. 10 minutes, read-out: 50% Inhibitory concentration
T2 construct: The suspension was used as a crude synaptosome fraction; from tissue; host or cells: rat (male Wistar) frontal cortex, crude synaptosome fraction
Description: Measurement of Serotonin (5-HT) Uptake Inhibitory Activity of Test Compound Using Rat Brain Synaptosome
as §1, with “frontal cortex.” for “corpus striatum.”, “frontal cortex” for “corpus striatum”
(§4) Uptake reaction was performed using each well of a 96-well round-bottom plate and a 200 μl volume in total of a solution containing pargyline (final concentration: 10 μM) and ascorbic acid (final concentration: 0.2 mg/ml).
as §2, with “5-HT,” for “DA,”, “5-HT” for “DA”, “8” for “2”, “10” for “Ten”
as §3, with “5-HT” for “DA”, “50%,” for “50%”

[3] = target: Norepinephrine (NE) uptake (Rattus norvegicus, UniProt Q9WTR4); test: Norepinephrine (NE) uptake inhibitory activity using rat brain synaptosome (hippocampus); details: tritium-labeled NE 12 nM, 37° C. ten minutes, read-out: 50% inhibitory concentration
Description: Measurement of Norepinephrine (NE) Uptake Inhibitory Activity of Test Compound Using Rat Brain Synaptosome
Male Wistar rats were decapitated, and their brains were removed and dissected to remove the hippocampus. The separated hippocampus was placed in a 20-fold weight of a 0.32 molarity (M) sucrose solution and homogenized with a potter homogenizer. The homogenate was centrifuged at 1000 g at 4° C. for 10 minutes, and the supernatant was further centrifuged at 20000 g at 4° C. for 20 minutes. The pellet was suspended in an incubation buffer (20 mM HEPES buffer (pH 7.4) containing 10 mM glucose, 145 mM sodium chloride, 4.5 mM potassium chloride, 1.2 mM magnesium chloride, and 1.5 mM calcium chloride). The suspension was used as a crude synaptosome fraction.
as §4
as §2, with “NE,” for “DA,”, “NE” for “DA”, “12” for “2”
as §3, with “NE” for “DA”

T1 sequence (P23977 whole entry): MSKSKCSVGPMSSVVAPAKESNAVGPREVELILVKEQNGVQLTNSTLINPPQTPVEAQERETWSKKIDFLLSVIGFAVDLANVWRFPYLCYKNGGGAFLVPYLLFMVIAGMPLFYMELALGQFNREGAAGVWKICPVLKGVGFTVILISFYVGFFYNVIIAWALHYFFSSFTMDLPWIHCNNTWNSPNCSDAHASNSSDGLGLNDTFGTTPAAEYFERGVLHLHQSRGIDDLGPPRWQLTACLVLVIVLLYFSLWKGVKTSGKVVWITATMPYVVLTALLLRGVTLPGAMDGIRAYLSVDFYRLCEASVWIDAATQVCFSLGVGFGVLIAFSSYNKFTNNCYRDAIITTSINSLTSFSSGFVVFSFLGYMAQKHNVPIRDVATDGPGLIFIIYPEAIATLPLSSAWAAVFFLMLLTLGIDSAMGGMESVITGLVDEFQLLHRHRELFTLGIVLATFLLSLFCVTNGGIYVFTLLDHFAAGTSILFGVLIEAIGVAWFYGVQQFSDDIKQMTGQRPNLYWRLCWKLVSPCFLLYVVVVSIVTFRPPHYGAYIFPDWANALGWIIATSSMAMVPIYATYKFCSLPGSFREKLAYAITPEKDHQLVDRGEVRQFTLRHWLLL
T2 sequence (P31652 whole entry): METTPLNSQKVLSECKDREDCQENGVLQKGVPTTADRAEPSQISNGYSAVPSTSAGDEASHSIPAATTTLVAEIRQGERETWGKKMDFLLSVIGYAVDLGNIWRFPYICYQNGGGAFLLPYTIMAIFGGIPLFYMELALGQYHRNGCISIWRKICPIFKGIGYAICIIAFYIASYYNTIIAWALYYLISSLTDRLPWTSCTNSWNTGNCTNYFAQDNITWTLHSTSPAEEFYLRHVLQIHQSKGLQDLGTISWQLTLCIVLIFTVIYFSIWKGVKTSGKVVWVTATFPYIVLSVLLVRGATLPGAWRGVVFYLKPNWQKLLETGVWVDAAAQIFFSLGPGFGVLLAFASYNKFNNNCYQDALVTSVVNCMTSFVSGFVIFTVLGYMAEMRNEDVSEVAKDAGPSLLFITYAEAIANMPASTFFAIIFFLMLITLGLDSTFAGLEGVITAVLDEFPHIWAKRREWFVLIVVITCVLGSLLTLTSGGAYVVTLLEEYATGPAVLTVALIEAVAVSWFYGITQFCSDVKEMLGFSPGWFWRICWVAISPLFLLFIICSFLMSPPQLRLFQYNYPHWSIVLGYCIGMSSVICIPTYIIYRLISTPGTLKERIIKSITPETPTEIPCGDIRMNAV

Row | Structure (SMILES) | IC50 [1] [nM] | IC50 [2] [nM] | IC50 [3] [nM]
1 | CC1(C)CN(c2cccc3occc23)[C@@H]2CCCC[C@@H]2N1 (relative stereo) [Example 33] | 15.1 | 2.6 | 0.7
2 | CC1(C)CN(c2cccc3ccccc23)[C@H]2CCCC[C@H]2N1 [Example 118] | 8.3 | 13.7 | 3.7
3 | CC1(C)CN(c2cccc3[nH]ncc23)[C@H]2CCCC[C@H]2N1 [Example 778] | 4.9 | 87.5 | 4.2
4 | CC1(C)CN(c2cccc3ccsc23)[C@@H]2CCCC[C@@H]2N1 [Example 72] | 47.9 | 2.6 | 1
5 | CC1(C)CN(c2cccc3occc23)[C@H]2CCCC[C@@H]2N1 [Example 191] | 13.5 | 3.2 | 2.1
6 | CC1(C)CN(c2csc3ccccc23)[C@@H]2CCCC[C@@H]2N1 [Example 577] | 47.9 | 5.2 | 5.9

The remaining lines, values ahead:

Row | IC50 [1] [nM] | IC50 [2] [nM] | IC50 [3] [nM] | Structure (SMILES)
7 | 85.9 | 7.1 | 4.6 | CC1(C)CN(c2ccc3cc[nH]c3c2)[C@H]2CCCC[C@H]2N1 [Example 2, (4aR,8aS)-1-(1H-indol-6-yl)-3,3-dimethyldecahydroquinoxaline]
8 | 68.4 | 12.5 | 11 | CC1(C)CN(c2ccc(Cl)c(Cl)c2)[C@H]2CCC[C@@H]2N1 (racemic) [Example 15]
9 | 7 | 7.3 | 1 | CC1(C)CN(c2ccc3cc(O)ccc3c2)[C@H]2CCCC[C@@H]2N1 [Example 850]
10 | 8.7 | 44 | 6.8 | CN1[C@@H]2CCCC[C@H]2N(c2ccc(Cl)c(Cl)c2)CC1(C)C [Example 273]
11 | 81.3 | 89.1 | 9.9 | OCCN1CCN(c2ccc(Cl)c(Cl)c2)[C@H]2CCCC[C@@H]21 (relative stereo) [Example 300]
12 | 85.7 | 4.7 | 11.7 | CC1(C)CN(c2ccc3cc(OC(F)F)ccc3c2)[C@H]2CCCC[C@@H]2N1 [Example 867]

Reference: patent US11273168B2, “Methods of treating anxiety by administering a substituted quinolone” (OTSUKA PHARMACEUTICAL CO., LTD., priority 2010, dated 2022)
